According to ChEMBL document CHEMBL3784981, “Anti-inflammatory, analgesic and antioxidant activities of novel kyotorphin-nitroxide hybrid molecules” (Bioorg Med Chem Lett, 2016):
Calls of active or inactive are those of the source.

Experiments:
[1] = system: Mus musculus; assay: Antiinflammatory activity in ICR mouse assessed as inhibition of xylene-induced ear edema at 0.1 umol/kg, po administered 30 mins prior to xylene challenge measured after 2hrs; assay type: functional; settings: for inhibition in vivo at 0.1 µmol/kg: Mus musculus, ICR, Ear, po
[2] = system: Mus musculus; assay: Analgesic activity in ICR mouse assessed as pain threshold at 165 umol/kg administered through oral gavage after 30 mins by tail flick method; assay type: functional
[3] = system: Mus musculus; assay: Analgesic activity in ICR mouse assessed as pain threshold at 165 umol/kg administered through oral gavage after 150 mins by tail flick method; assay type: functional
[4] = system: Mus musculus; assay: Analgesic activity in ICR mouse assessed as pain threshold at 165 umol/kg administered through oral gavage after 180 mins by tail flick method; assay type: functional
[5] = system: Mus musculus; assay: Analgesic activity in ICR mouse assessed as pain threshold at 165 umol/kg administered through oral gavage after 120 mins by tail flick method; assay type: functional
[6] = system: Mus musculus; assay: Analgesic activity in ICR mouse assessed as pain threshold at 165 umol/kg administered through oral gavage after 90 mins by tail flick method; assay type: functional
[7] = system: Mus musculus; assay: Analgesic activity in ICR mouse assessed as pain threshold at 165 umol/kg administered through oral gavage after 60 mins by tail flick method; assay type: functional
[8] = system: Mus musculus; assay: Analgesic activity in ICR mouse assessed as pain threshold at 0.1 umol/kg administered through oral gavage after 90 mins by tail flick method; assay type: functional
[9] = system: Mus musculus; assay: Analgesic activity in ICR mouse assessed as pain threshold at 0.1 umol/kg administered through oral gavage after 120 mins by tail flick method; assay type: functional
[10] = Antioxidant activity in rat PC12 cells assessed as H2O2 radical scavenging activity measured as cell survival preincubated with compound for 1 hr measured after 14 hrs by MTT assay; assay type: functional, cell-based; settings: pc-12
[11] = system: Mus musculus; assay: Analgesic activity in ICR mouse assessed as pain threshold at 0.1 umol/kg administered through oral gavage after 150 mins by tail flick method; assay type: functional
[12] = system: Mus musculus; assay: Analgesic activity in ICR mouse assessed as pain threshold at 0.1 umol/kg administered through oral gavage after 180 mins by tail flick method; assay type: functional
[13] = Antioxidant activity in H2O2/Fe(II)-stimulated rat PC12 cells assessed as OH radical scavenging activity measured by cell survival preincubated with compound for 1 hr measured after 14 hrs by MTT assay; assay type: functional, cell-based; settings: pc-12
[14] = Antioxidant activity in sodium nitroprusside-stimulated rat PC12 cells assessed as NO radical scavenging activity measured as cell survival preincubated with compound for 1 hr followed by addition of sodium nitroprusside for 2 measured after 14 hrs by MTT assay; assay type: functional, cell-based; settings: pc-12
[15] = system: Mus musculus; assay: Analgesic activity in ICR mouse assessed as pain threshold at 0.1 umol/kg administered through oral gavage after 30 mins by tail flick method; assay type: functional
[16] = system: Mus musculus; assay: Analgesic activity in ICR mouse assessed as pain threshold at 0.1 umol/kg administered through oral gavage after 60 mins by tail flick method; assay type: functional
[17] = system: Mus musculus; assay: Analgesic activity in ICR mouse assessed as pain threshold at 1 umol/kg administered through oral gavage after 60 mins by tail flick method; assay type: functional
[18] = system: Mus musculus; assay: Analgesic activity in ICR mouse assessed as pain threshold at 1 umol/kg administered through oral gavage after 150 mins by tail flick method; assay type: functional
[19] = system: Mus musculus; assay: Analgesic activity in ICR mouse assessed as pain threshold at 1 umol/kg administered through oral gavage after 90 mins by tail flick method; assay type: functional
[20] = system: Mus musculus; assay: Analgesic activity in ICR mouse assessed as pain threshold at 1 umol/kg administered through oral gavage after 120 mins by tail flick method; assay type: functional
[21] = system: Mus musculus; assay: Analgesic activity in ICR mouse assessed as pain threshold at 1 umol/kg administered through oral gavage after 180 mins by tail flick method; assay type: functional
[22] = system: Mus musculus; assay: Analgesic activity in ICR mouse assessed as pain threshold at 1 umol/kg administered through oral gavage after 30 mins by tail flick method; assay type: functional
[23] = system: HUVEC; assay: Inhibition of simulated ischemia/reperfusion-induced human HUVEC cells death assessed as increase in tubular mitochondria levels at 30 ug/ml after 2 hrs by Hoechst 33342 dye based fluorescence assay (reference value: 11.3 +/- 2.1 %); assay type: functional; design: scale not given: the % may be the effect or the level left
[24] = system: Mus musculus; assay: Analgesic activity in ICR mouse assessed as pain threshold at 0.05 umol/kg administered through oral gavage after 120 mins by tail flick method; assay type: functional
[25] = system: Mus musculus; assay: Analgesic activity in ICR mouse assessed as pain threshold at 0.05 umol/kg administered through oral gavage after 60 mins by tail flick method; assay type: functional
[26] = system: Mus musculus; assay: Analgesic activity in ICR mouse assessed as pain threshold at 0.055 umol/kg administered through oral gavage after 180 mins by tail flick method; assay type: functional
[27] = system: Mus musculus; assay: Analgesic activity in ICR mouse assessed as pain threshold at 0.15 umol/kg administered through oral gavage after 120 mins by tail flick method; assay type: functional
[28] = system: Mus musculus; assay: Analgesic activity in ICR mouse assessed as pain threshold at 0.055 umol/kg administered through oral gavage after 150 mins by tail flick method; assay type: functional
[29] = system: HUVEC; assay: Inhibition of simulated ischemia/reperfusion-induced ROS production in human HUVEC cells at 30 ug/ml after 2 hrs by Hoechst 33342 dye based fluorescence assay; assay type: functional, cell-based
[30] = system: Mus musculus; assay: Antiinflammatory activity in ICR mouse assessed as inhibition of xylene-induced ear edema at 0.15 umol/kg, po administered 30 mins prior to xylene challenge measured after 2hrs; assay type: functional
[31] = system: Mus musculus; assay: Analgesic activity in ICR mouse assessed as pain threshold at 0.15 umol/kg administered through oral gavage after 150 mins by tail flick method; assay type: functional
[32] = system: Mus musculus; assay: Analgesic activity in ICR mouse assessed as pain threshold at 0.05 umol/kg administered through oral gavage after 90 mins by tail flick method; assay type: functional
[33] = system: Mus musculus; assay: Analgesic activity in ICR mouse assessed as pain threshold at 0.15 umol/kg administered through oral gavage after 90 mins by tail flick method; assay type: functional
[34] = system: HUVEC; assay: Inhibition of simulated ischemia/reperfusion-induced human HUVEC cells death assessed as decrease in fragmented mitochondria at 30 ug/ml after 2 hrs by Hoechst 33342 dye based fluorescence assay; assay type: functional, cell-based
[35] = system: Mus musculus; assay: Analgesic activity in ICR mouse assessed as pain threshold at 0.15 umol/kg administered through oral gavage after 60 mins by tail flick method; assay type: functional
[36] = system: Mus musculus; assay: Analgesic activity in ICR mouse assessed as pain threshold at 0.15 umol/kg administered through oral gavage after 30 mins by tail flick method; assay type: functional
[37] = system: HUVEC; assay: Inhibition of simulated ischemia/reperfusion-induced cytochrome C release in human HUVEC cells at 30 ug/ml after 2 hrs by fluorescence assay (reference value: 75.3 +/- 5.2 %); assay type: functional; design: scale not given: the % may be the effect or the level left
[38] = system: Mus musculus; assay: Analgesic activity in ICR mouse assessed as pain threshold at 0.15 umol/kg administered through oral gavage after 180 mins by tail flick method; assay type: functional
[39] = system: Mus musculus; assay: Antiinflammatory activity in ICR mouse assessed as inhibition of xylene-induced ear edema at 0.05 umol/kg, po administered 30 mins prior to xylene challenge measured after 2hrs; assay type: functional
[40] = system: Mus musculus; assay: Analgesic activity in ICR mouse assessed as pain threshold at 0.05 umol/kg administered through oral gavage after 30 mins by tail flick method; assay type: functional

Q: For `CC(=O)Oc1ccccc1C(=O)O` [ASPIRIN], which inhibition in vivo at 0.1 µmol/kg [1] is on record?
A: 49.9%

Q: What about the Activity [2] of the same compound?
A: 33.21%

Q: What about the Activity [3] of the same compound?
A: 15.84%

Q: And the Activity [4]?
A: 20.56%

Q: What about the Activity [5] of the same compound?
A: 25.21%

Q: And the Activity [6]?
A: 53.2%

Q: What about the Activity [7] of the same compound?
A: 66.32%

Q: Which results are given for `CC1(C)N([O])C(c2ccc(OCC(=O)N[C@@H](Cc3ccc(O)cc3)C(=O)N[C@@H](CCC(=O)O)C(=O)O)cc2)=[N+]([O-])C1(C)C`?
A: Activity [8]: 26.41%; Activity [9]: 13.58%; inhibition (INH) [1]: 32.22%; EC50 [10]: 31.3 µM; Activity [11]: 15.11%; Activity [12]: 14.22%; EC50 [13]: 22.7 µM; EC50 [14]: 8.1 µM; Activity [15]: 11.1%; Activity [16]: 13.44%

Q: For `Cc1cc(C[C@H](NC(=O)COc2ccc(C3=[N+]([O-])C(C)(C)C(C)(C)N3[O])cc2)C(=O)N[C@@H](CCCNC(=N)N)C(=O)O)ccc1O`, which Activity [8] is on record?
A: 22.1%

Q: What about the Activity [9] of the same compound?
A: 31.21%

Q: And the “inhibition (INH)” value [1]?
A: 29.47%

Q: And the EC50 [10]?
A: 31.3 µM

Q: And the Activity [11]?
A: 13.25%

Q: What about the Activity [12] of the same compound?
A: 12.38%

Q: And the EC50 [13]?
A: 22.7 µM

Q: And the EC50 [14]?
A: 8.1 µM

Q: What about the Activity [15] of the same compound?
A: 10.24%

Q: What about the Activity [16] of the same compound?
A: 18.97%

Q: For `NC(N)=NCCC[C@H](NC(=O)[C@@H](N)Cc1ccc(O)cc1)C(=O)O` [KYOTORPHIN], which Activity [17] is on record?
A: 22.78%

Q: And the inhibition in vivo at 0.1 µmol/kg [1]?
A: 25.9%

Q: What about the Activity [18] of the same compound?
A: 12.11%

Q: What about the Activity [19] of the same compound?
A: 25.35%

Q: What about the Activity [20] of the same compound?
A: 12.32%

Q: And the Activity [21]?
A: 10.55%

Q: What about the Activity [22] of the same compound?
A: 16.08%

Q: For `CC1(C)N([O])C(c2ccc(OCC(=O)NCCCNC(=O)[C@H](Cc3ccc(O)cc3)NC(=O)[C@@H](N)CCCNC(=N)N)cc2)=[N+]([O-])C1(C)C`, which Activity [23] is on record?
A: 55.7%

Q: And the Activity [24]?
A: 25.36%

Q: And the Activity [8]?
A: 44.76%

Q: And the Activity [9]?
A: 60.32%

Q: And the Activity [25]?
A: 12.31%

Q: What about the “inhibition (INH)” value [1] of the same compound?
A: 73.47%

Q: What about the Activity [26] of the same compound?
A: 16.28%

Q: What about the Activity [27] of the same compound?
A: 68.42%

Q: And the Activity [28]?
A: 19.35%

Q: What about the Activity [29] of the same compound?
A: Active

Q: And the “inhibition (INH)” value [30]?
A: 78.58%

Q: And the EC50 [10]?
A: 31.3 µM

Q: What about the Activity [11] of the same compound?
A: 51.33%

Q: And the Activity [31]?
A: 52.45%

Q: And the Activity [32]?
A: 18.37%

Q: And the Activity [33]?
A: 50.35%

Q: And the inhibition [34]?
A: Active

Q: What about the Activity [12] of the same compound?
A: 22.01%

Q: What about the Activity [35] of the same compound?
A: 33.47%

Q: And the EC50 [13]?
A: 22.7 µM

Q: And the EC50 [14]?
A: 8.1 µM

Q: And the Activity [36]?
A: 20.17%

Q: And the Activity [15]?
A: 16.3%

Q: And the Activity [16]?
A: 29.36%

Q: And the Activity [37]?
A: 27.8%

Q: What about the Activity [38] of the same compound?
A: 30.34%

Q: And the “inhibition (INH)” value [39]?
A: 37.33%

Q: And the Activity [40]?
A: 8.16%

Q: With `CC1(C)N([O])C(c2ccc(OCC(=O)N[C@@H](Cc3ccc(O)cc3)C(=O)N[C@@H](CCCNC(=N)N)C(=O)O)cc2)=[N+]([O-])C1(C)C` as the compound, how does the Activity [8] read?
A: 31.45%

Q: What about the Activity [9] of the same compound?
A: 40.01%

Q: What about the “inhibition (INH)” value [1] of the same compound?
A: 40.86%

Q: And the EC50 [10]?
A: 31.3 µM

Q: And the Activity [11]?
A: 34.14%

Q: And the Activity [12]?
A: 14.45%

Q: What about the EC50 [13] of the same compound?
A: 22.7 µM

Q: What about the EC50 [14] of the same compound?
A: 8.1 µM

Q: What about the Activity [15] of the same compound?
A: 12.53%

Q: And the Activity [16]?
A: 18.66%
